{"source": "the supplement of paper PMC10307832", "test_in_all_cases": "relative viability (nuclei count vs DMSO), 5 days (fraction); higher = more cells survive", "key": {"[1]": {"compound": "CCn1c(-c2nonc2N)nc2c(C#CC(C)(C)O)ncc(OC[C@H]3CCCNC3)c21", "how_it_was_run": "(§1)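 Viability here means nuclei in treated wells divided by nuclei in vehicle wells, reported as the median across plates. Only plates with control CV below 25% and at least one doubling passed. Lung cancer cell lines in 1536-well plates were exposed to five √10-spaced library-drug doses for 5 days and counted from 4× Hoechst images in MetaXpress.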"}, "[2]": {"compound": "CCOC1=CC=CC=C1N=NC2=C(NN(C2=O)C3=NC(=CS3)C4=CC=CC=C4)C [BAM7]", "how_it_was_run": "as §1"}, "[3]": {"compound": "CCn1c(-c2nonc2N)nc2c(C#CC(C)(C)O)ncc(OC[C@H]3CCCNC3)c21 + CS(=O)(=O)N1CCN(Cc2cc3nc(-c4cccc5[nH]ncc45)nc(N4CCOCC4)c3s2)CC1 [Pictilisib] (partner 1 µM)", "how_it_was_run": "(§2)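 Cells from lung cancer lines were seeded into 1536-well plates and, one day later, dosed by pin tool. Treatments were either a single drug or a fixed dose of an anchor drug with five library-drug doses (not always all listed) in √10 steps. After 5 days, nuclei were stained in a one-step fixation (final 0.05% Triton X-100, 1% formaldehyde, 1 ug/ml Hoechst) and counted on 4× images, and relative viability is the treated-to-vehicle nuclei ratio, as the median of duplicate plates.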"}, "[4]": {"compound": "CCn1c(-c2nonc2N)nc2c(C#CC(C)(C)O)ncc(OC[C@H]3CCCNC3)c21 + COc1cc2c(Oc3ccc(NC(=O)C4(C(=O)Nc5ccc(F)cc5)CC4)cc3F)ccnc2cc1OCCCN1CCOCC1 [Foretinib] (partner 0.25 µM)", "how_it_was_run": "as §2"}}}
{"cell line": "UMC-11", "values": [{"measurement": "relative viability", "setting": "[1]; 0.01 µM", "result": 0.955}, {"measurement": "relative viability", "setting": "[1]; 0.03162 µM", "result": 1.02}, {"measurement": "relative viability", "setting": "[1]; 0.1 µM", "result": 0.957}, {"measurement": "relative viability", "setting": "[1]; 0.3162 µM", "result": 0.982}, {"measurement": "relative viability", "setting": "[1]; 1 µM", "result": 0.943}, {"measurement": "relative viability", "setting": "[2]; 0.5 µM", "result": 1.01}, {"measurement": "relative viability", "setting": "[2]; 5 µM", "result": 1.1}, {"measurement": "relative viability", "setting": "[2]; 15.81 µM", "result": 1.06}, {"measurement": "relative viability", "setting": "[2]; 50 µM", "result": 1.07}, {"measurement": "relative viability", "setting": "[3]; first compound 0.01 µM", "result": 0.778}, {"measurement": "relative viability", "setting": "[3]; first compound 0.03162 µM", "result": 0.681}, {"measurement": "relative viability", "setting": "[3]; first compound 0.1 µM", "result": 0.771}, {"measurement": "relative viability", "setting": "[3]; first compound 0.3162 µM", "result": 0.758}, {"measurement": "relative viability", "setting": "[3]; first compound 1 µM", "result": 0.935}, {"measurement": "relative viability", "setting": "[4]; first compound 0.01 µM", "result": 1.01}, {"measurement": "relative viability", "setting": "[4]; first compound 0.03162 µM", "result": 1.06}, {"measurement": "relative viability", "setting": "[4]; first compound 0.1 µM", "result": 1.01}, {"measurement": "relative viability", "setting": "[4]; first compound 0.3162 µM", "result": 0.931}, {"measurement": "relative viability", "setting": "[4]; first compound 1 µM", "result": 1.04}]}
